Measured values reported in ChEMBL document CHEMBL1201862, “PubChem BioAssay data set” (2004).
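Assay format: 96-well plates, 48-hour exposure. GI50 = concentration required for 50% inhibition of growth.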 Activity calls are given as the source filed them. No stated cut-off is given here; in the data, active = GI50 up to about 1.1 µM and inactive = higher.

Legend:
Experiment in all cases: growth of human tumour cells (NCI), 48 h
A549 = system: A549
COLO 205 = system: COLO 205
HCC 2998 = system: HCC 2998
HCT-15 = system: HCT-15
HL-60 = system: HL-60
LOX IMVI = system: LOX IMVI
MOLT-4 = system: MOLT-4
Malme-3M = system: Malme-3M
NCI-H226 = system: NCI-H226
NCI-H23 = system: NCI-H23
RXF 393 = system: RXF 393
SF-295 = system: SF-295
SK-MEL-5 = system: SK-MEL-5
T47D = system: T47D
UACC-62 = system: UACC-62
UO-31 = system: UO-31
CAKI-1 = system: CAKI-1
DU-145 = system: DU-145
SR = system: SR
SW-620 = system: SW-620

Structure (SMILES) | GI50 (A549) | GI50 (COLO 205) | GI50 (HCC 2998) | GI50 (HCT-15) | GI50 (HL-60) | GI50 (LOX IMVI) | GI50 (MOLT-4) | GI50 (Malme-3M) | GI50 (NCI-H226) | GI50 (NCI-H23) | GI50 (RXF 393) | GI50 (SF-295) | GI50 (SK-MEL-5) | GI50 (T47D) | GI50 (UACC-62) | GI50 (UO-31) | GI50 (CAKI-1) | GI50 (DU-145) | GI50 (SR) | GI50 (SW-620)
O=C1CCCc2cc3c(cc21)CC1(Cc2ccccc2C1)C3 | 6.17 µM (inactive) | 1.93 µM (inactive) | 16.1 µM (inactive) | 3.59 µM | 1.84 µM (inactive) | 6.53 µM (inactive) | 3.52 µM (inactive) | 9.79 µM (inactive) | 2.03 µM (inactive) | 6.78 µM (inactive) | 8.83 µM (inactive) | 4.03 µM (inactive) | 4.89 µM (inactive) | 5.24 µM (inactive) | 8.91 µM (inactive) | 1.46 µM (inactive) |  |  |  | 
NCCCCC(NC(=O)C(N)Cc1ccc(O)cn1)C(=O)O (centres undefined) | > 100 µM (inactive) | > 100 µM (inactive) | > 100 µM (inactive) | > 100 µM | > 100 µM (inactive) | > 100 µM (inactive) | > 100 µM (inactive) | > 100 µM (inactive) | > 100 µM (inactive) | > 100 µM (inactive) | > 100 µM (inactive) | > 100 µM (inactive) | > 100 µM (inactive) |  |  | > 100 µM (inactive) | > 100 µM (inactive) | > 100 µM (inactive) | > 100 µM (inactive) | > 100 µM (inactive)
COC1OC2COC(=O)c3cc(O)c(O)c(O)c3-c3c(cc(O)c(O)c3O)C(=O)OC2C(O)C1O (centres undefined) | 72.6 µM (inactive) | 54.1 µM (inactive) |  | > 100 µM | > 10 µM (inactive) | 23.2 µM (inactive) | 28.6 µM (inactive) | > 100 µM (inactive) | > 100 µM (inactive) | > 100 µM (inactive) | > 100 µM (inactive) | 18.9 µM (inactive) | 84.7 µM (inactive) |  | 21.4 µM (inactive) | > 100 µM (inactive) | 63.8 µM (inactive) | > 100 µM (inactive) |  | 21.7 µM (inactive)
COC(=O)Cc1nc2ccccc2o1 | 74.6 µM (inactive) | 95.1 µM (inactive) | 88.5 µM (inactive) | 33.3 µM | 12.5 µM (inactive) |  | 67.9 µM (inactive) | > 100 µM (inactive) | > 100 µM (inactive) | > 100 µM (inactive) | > 100 µM (inactive) | 41.1 µM (inactive) | 50.8 µM (inactive) |  | 20.2 µM (inactive) | > 100 µM (inactive) | 37.9 µM (inactive) |  | > 100 µM (inactive) | 95.1 µM (inactive)
Cc1ccc(Nc2cccc3c2C(=O)c2cccc(Nc4ccc(C)cc4S(=O)(=O)O)c2C3=O)c(S(=O)(=O)O)c1 | > 100 µM (inactive) | > 100 µM (inactive) | > 100 µM (inactive) | > 100 µM | > 100 µM (inactive) |  | > 100 µM (inactive) | > 100 µM (inactive) | > 100 µM (inactive) |  | > 100 µM (inactive) |  | > 100 µM (inactive) |  | > 100 µM (inactive) | > 100 µM (inactive) | > 100 µM (inactive) |  | > 100 µM (inactive) | > 100 µM (inactive)
Brc1ccc2c(C3CN[C@@H](c4c[nH]c5cc(Br)ccc45)CN3)c[nH]c2c1 (some centres undefined) | 2.8 µM (inactive) | 1.9 µM (inactive) | 2 µM (inactive) | 3.61 µM | 2.42 µM (inactive) | 2.61 µM (inactive) | 1.44 µM (inactive) | 12.2 µM (inactive) | 2.13 µM (inactive) | 2.34 µM (inactive) | 1.55 µM (inactive) | 3.4 µM (inactive) | 3.67 µM (inactive) |  | 4.37 µM (inactive) | 5.68 µM (inactive) | 10.4 µM (inactive) |  | 0.968 µM (active) | 2.48 µM (inactive)
c1ccc(C2OC3(CCC[C@H]4C[C@H]43)O[C@H]2c2ccccc2)cc1 (some centres undefined) | 43.2 µM (inactive) | 24.7 µM (inactive) | 39.9 µM (inactive) | 33.8 µM | 19.8 µM (inactive) | 24.2 µM (inactive) | 25.8 µM (inactive) | 34.5 µM (inactive) | 26.2 µM (inactive) | 38.6 µM (inactive) | 38.5 µM (inactive) | 46.3 µM (inactive) | 25.3 µM (inactive) |  | 57.3 µM (inactive) | 38.7 µM (inactive) | 29.6 µM (inactive) |  | 27.2 µM (inactive) | 31.2 µM (inactive)
CC(=O)Nc1cc(Nc2cc(O)nc(O)n2)ccc1C | > 100 µM (inactive) | > 100 µM (inactive) | > 100 µM (inactive) | > 100 µM | > 100 µM (inactive) | > 100 µM (inactive) |  | > 100 µM (inactive) | > 100 µM (inactive) |  | > 100 µM (inactive) | > 100 µM (inactive) | > 100 µM (inactive) |  |  | > 100 µM (inactive) |  | > 100 µM (inactive) | > 100 µM (inactive) | > 100 µM (inactive)
